Reference: patent US9346815B2, “5-chloro-2-difluoromethoxyphenyl pyrazolopyrimidine compounds, compositions and methods of use thereof” (Genentech, Inc., priority 2014, dated 2016)
Where two headings read alike, the source gives them in different places.

Columns and labels:
[1] = biological target: isolated recombinant JAK2 kinase domain (Homo sapiens (Human), UniProt O60674); assay: JAK2 enzyme assay (Caliper LabChip, peptide phosphorylation); assay type: biochemical; conditions: 25 μM ATP
[2] = tested on: JAK1-dependent STAT6 phosphorylation downstream of IL-13 stimulation in BEAS-2B human bronchial epithelial cells; assay: JAK1 pathway assay in BEAS-2B cells (IL-13-pSTAT6, MSD); assay type: cell-based; conditions: read-out: IL13-pSTAT6 EC50 (uM)_BEAS-2B
Summary of the method: (§1)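 Inhibitors were added to TF-1 cells (GM-CSF-starved, serum-free) for 30 min or to BEAS-2B cells (complete medium) for 1 hr at 37° C. MSD detected pSTAT6.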

[3] = tested on: JAK1-dependent STAT6 phosphorylation downstream of IL-13 stimulation in TF-1 human erythroleukemia cells; assay: JAK1 pathway assay in TF-1 cells (IL-13-pSTAT6, MSD); assay type: cell-based; conditions: read-out: IL13-pSTAT6 EC50_TF-1
Summary of the method: as §1

[4] = biological target: isolated recombinant JAK1 kinase domain (Homo sapiens (Human), UniProt P23458); assay: JAK1 enzyme assay (Caliper LabChip, peptide phosphorylation); assay type: biochemical; conditions: isolated recombinant JAK1 kinase domain, 25 μM ATP
Chain of isolated recombinant JAK1 kinase domain (P23458 875-1153): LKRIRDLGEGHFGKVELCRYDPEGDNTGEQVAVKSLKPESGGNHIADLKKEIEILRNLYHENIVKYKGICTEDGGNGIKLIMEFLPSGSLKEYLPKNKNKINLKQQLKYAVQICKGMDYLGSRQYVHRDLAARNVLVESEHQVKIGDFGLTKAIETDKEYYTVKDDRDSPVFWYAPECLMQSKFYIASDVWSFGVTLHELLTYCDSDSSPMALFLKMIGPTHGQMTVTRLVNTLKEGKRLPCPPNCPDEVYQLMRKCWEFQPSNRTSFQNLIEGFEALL

Chain of isolated recombinant JAK2 kinase domain (O60674 849-1124): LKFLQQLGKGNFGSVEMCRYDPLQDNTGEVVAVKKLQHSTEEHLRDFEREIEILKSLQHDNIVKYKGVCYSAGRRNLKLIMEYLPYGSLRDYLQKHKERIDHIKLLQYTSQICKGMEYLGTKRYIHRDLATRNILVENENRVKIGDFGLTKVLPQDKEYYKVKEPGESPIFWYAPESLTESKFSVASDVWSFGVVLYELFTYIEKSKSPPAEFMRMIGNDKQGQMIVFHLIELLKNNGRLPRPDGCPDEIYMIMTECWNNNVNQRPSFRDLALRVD

SMILES | Ki [1] | EC50 ([3]; Homo sapiens, TF-1, TF-1 cells) | Ki [4] | EC50 ([3]; TF-1 cells) | EC50 [2]
O=C(Nc1cn(CC(=O)N2C[C@H]3CN(CC4CCC4)C[C@H]3C2)nc1-c1cc(Cl)ccc1OC(F)F)c1cnn2cccnc12 [Example 40, N-[1-[2-[(3aR,6aS)-2-(cyclobutylmethyl)-1,3,3a,4,6,6a-hexahydropyrrolo[3,4-c]pyrrol-5-yl]-2-oxo-ethyl]-3-[5-chloro-2-(difluoromethoxy)phenyl]pyrazol-4-yl]pyrazolo[1,5-a]pyrimidine-3-carboxamide] | 0.61 nM | 3.8 nM | 0.65 nM |  | 0.128 µM
CN1CC[C@@H]2[C@@H](CCN2C(=O)Cn2cc(NC(=O)c3cnn4cccnc34)c(-c3cc(Cl)ccc3OC(F)F)n2)C1 [Example 45, N-[1-[2-[(3aS,7aR)-5-methyl-3,3a,4,6,7,7a-hexahydro-2H-pyrrolo[3,2-c]pyridin-1-yl]-2-oxo-ethyl]-3-[5-chloro-2-(difluoromethoxy)phenyl]pyrazol-4-yl]pyrazolo[1,5-a]pyrimidine-3-carboxamide] | 1.78 nM |  | 0.74 nM | 7.1 nM | 0.0245 µM
CN1CC[C@H]2[C@H](CCN2C(=O)Cn2cc(NC(=O)c3cnn4cccnc34)c(-c3cc(Cl)ccc3OC(F)F)n2)C1 [Example 48, N-[1-[2-[(3aR,7aS)-5-methyl-3,3a,4,6,7,7a-hexahydro-2H-pyrrolo[3,2-c]pyridin-1-yl]-2-oxo-ethyl]-3-[5-chloro-2-(difluoromethoxy)phenyl]pyrazol-4-yl]pyrazolo[1,5-a]pyrimidine-3-carboxamide] | 1.85 nM | 13.7 nM | 0.94 nM |  | 0.0594 µM
O=C(Nc1cn(CC(=O)N2C[C@H]3CN(CC4CCCCC4)C[C@H]3C2)nc1-c1cc(Cl)ccc1OC(F)F)c1cnn2cccnc12 [Example 52, N-[1-[2-[(3aR,6aS)-2-(cyclohexylmethyl)-1,3,3a,4,6,6a-hexahydropyrrolo[3,4-c]pyrrol-5-yl]-2-oxo-ethyl]-3-[5-chloro-2-(difluoromethoxy)phenyl]pyrazol-4-yl]pyrazolo[1,5-a]pyrimidine-3-carboxamide] | 0.62 nM | 5.4 nM | 0.65 nM |  | 0.0388 µM
CN1CC[C@@H]2[C@H](CCN2C(=O)Cn2cc(NC(=O)c3cnn4cccnc34)c(-c3cc(Cl)ccc3OC(F)F)n2)C1 [Example 61, N-[1-[2-[(3aR,7aR)-5-methyl-3,3a,4,6,7,7a-hexahydro-2H-pyrrolo[3,2-c]pyridin-1-yl]-2-oxo-ethyl]-3-[5-chloro-2-(difluoromethoxy)phenyl]pyrazol-4-yl]pyrazolo[1,5-a]pyrimidine-3-carboxamide] | 0.68 nM | 27.5 nM | 0.23 nM |  | 0.0324 µM
CN1CC[C@H]2[C@@H](CCN2C(=O)Cn2cc(NC(=O)c3cnn4cccnc34)c(-c3cc(Cl)ccc3OC(F)F)n2)C1 [Example 62, N-[1-[2-[(3aS,7aS)-5-methyl-3,3a,4,6,7,7a-hexahydro-2H-pyrrolo[3,2-c]pyridin-1-yl]-2-oxo-ethyl]-3-[5-chloro-2-(difluoromethoxy)phenyl]pyrazol-4-yl]pyrazolo[1,5-a]pyrimidine-3-carboxamide] | 2.68 nM | 55.8 nM | 2.07 nM |  | 0.0892 µM
N#CCCNC1CCN(C(=O)Cn2cc(NC(=O)c3cnn4cccnc34)c(-c3cc(Cl)ccc3OC(F)F)n2)CC1 [Example 87, N-[3-[5-chloro-2-(difluoromethoxy)phenyl]-1-[2-[4-(2-cyanoethylamino)-1-piperidyl]-2-oxo-ethyl]pyrazol-4-yl]pyrazolo[1,5-a]pyrimidine-3-carboxamide] | 0.73 nM | 15.4 nM | 0.4 nM |  | 0.014 µM
CC1(CN(CCC(F)(F)F)C2CCN(C(=O)Cn3cc(NC(=O)c4cnn5cccnc45)c(-c4cc(Cl)ccc4OC(F)F)n3)CC2)COC1 [Example 117, N-[3-[5-chloro-2-(difluoromethoxy)phenyl]-1-[2-[4-[(3-methyloxetan-3-yl)methyl-(3,3,3-trifluoropropyl)amino]-1-piperidyl]-2-oxo-ethyl]pyrazol-4-yl]pyrazolo[1,5-a]pyrimidine-3-carboxamide] | 1.13 nM | 8.6 nM | 0.51 nM |  | 0.0546 µM
CC(=O)N1CCC(N2CCC(n3cc(NC(=O)c4c(N)nn5cccnc45)c(-c4cc(Cl)ccc4OC(F)F)n3)CC2)CC1 [Example 144, N-[1-[1-(1-acetyl-4-piperidyl)-4-piperidyl]-3-[5-chloro-2-(difluoromethoxy)phenyl]pyrazol-4-yl]-2-amino-pyrazolo[1,5-a]pyrimidine-3-carboxamide] | 0.17 nM | 12.8 nM | 0.54 nM |  | 0.0213 µM
CNC(=O)CCCN1CCC(n2cc(NC(=O)c3c(N)nn4cccnc34)c(-c3cc(Cl)ccc3OC(F)F)n2)CC1 [Example 149, 2-amino-N-[3-[5-chloro-2-(difluoromethoxy)phenyl]-1-[1-[4-(methylamino)-4-oxo-butyl]-4-piperidyl]pyrazol-4-yl]pyrazolo[1,5-a]pyrimidine-3-carboxamide] | 0.2 nM | 8.3 nM | 0.81 nM |  | 0.0198 µM
CN(CCC#N)C1CCN(c2nc(-c3cc(Cl)ccc3OC(F)F)c(NC(=O)c3cnn4cccnc34)s2)CC1 [Example 189, Pyrazolo[1,5-a]pyrimidine-3-carboxylic acid (4-(5-chloro-2-difluoromethoxy-phenyl)-2-{4-[(2-cyano-ethyl)-methyl-amino]-piperidin-1-yl}-thiazol-5-yl)-amide] | 1.61 nM | 5.3 nM | 2.59 nM |  | 0.02 µM
CN(C)CC1CCN(c2nc(-c3cc(Cl)ccc3OC(F)F)c(NC(=O)c3cnn4cccnc34)s2)CC1 [Example 190, N-[4-[5-chloro-2-(difluoromethoxy)phenyl]-2-[4-[(dimethylamino)methyl]-1-piperidyl]thiazol-5-yl]pyrazolo[1,5-a]pyrimidine-3-carboxamide] | 2.02 nM | 14.6 nM | 2.69 nM |  | 0.0098 µM
CN(CC1(C)COC1)C1CCN(c2nc(-c3cc(Cl)ccc3OC(F)F)c(NC(=O)c3cnn4cccnc34)s2)CC1 [Example 200, N-[4-[5-chloro-2-(difluoromethoxy)phenyl]-2-[4-[methyl-[(3-methyloxetan-3-yl)methyl]amino]-1-piperidyl]thiazol-5-yl]pyrazolo[1,5-a]pyrimidine-3-carboxamide] | 1.07 nM | 5.9 nM | 1.24 nM |  | 0.0254 µM

Second part, led by results:

Ki [1] | EC50 ([3]; Homo sapiens, TF-1, TF-1 cells) | Ki [4] | EC50 ([3]; TF-1 cells) | SMILES | EC50 [2]
1.59 nM | 42.3 nM | 1.07 nM |  | CNC1CCN(C(=O)Cn2cc(NC(=O)c3cnn4cccnc34)c(-c3cc(Cl)ccc3OC(F)F)n2)CC1 [Example 83, N-[3-[5-chloro-2-(difluoromethoxy)phenyl]-1-[2-[4-(methylamino)-1-piperidyl]-2-oxo-ethyl]pyrazol-4-yl]pyrazolo[1,5-a]pyrimidine-3-carboxamide] | 0.143 µM
2.07 nM | 42.4 nM | 1.2 nM |  | CN(CCc1ccc(Cl)cc1)C1CCN(C(=O)Cn2cc(NC(=O)c3cnn4cccnc34)c(-c3cc(Cl)ccc3OC(F)F)n2)CC1 [Example 94, N-[3-[5-chloro-2-(difluoromethoxy)phenyl]-1-[2-[4-[2-(4-chlorophenyl)ethyl-methyl-amino]-1-piperidyl]-2-oxo-ethyl]pyrazol-4-yl]pyrazolo[1,5-a]pyrimidine-3-carboxamide] | 0.0931 µM
2.03 nM | 8.9 nM | 1.04 nM |  | Cc1ccc(OCCN(C)C2CCN(C(=O)Cn3cc(NC(=O)c4cnn5cccnc45)c(-c4cc(Cl)ccc4OC(F)F)n3)CC2)cc1 [Example 110, N-[3-[5-chloro-2-(difluoromethoxy)phenyl]-1-[2-[4-[methyl-[2-(4-methylphenoxy)ethyl]amino]-1-piperidyl]-2-oxo-ethyl]pyrazol-4-yl]pyrazolo[1,5-a]pyrimidine-3-carboxamide] | 0.0875 µM
4.45 nM | 100 nM | 2.57 nM |  | O=C(Nc1cn(CC(=O)N2CCC(N(CCC(F)(F)F)Cc3ccccc3)CC2)nc1-c1cc(Cl)ccc1OC(F)F)c1cnn2cccnc12 [Example 118, N-[1-[2-[4-[benzyl(3,3,3-trifluoropropyl)amino]-1-piperidyl]-2-oxo-ethyl]-3-[5-chloro-2-(difluoromethoxy)phenyl]pyrazol-4-yl]pyrazolo[1,5-a]pyrimidine-3-carboxamide] | 0.303 µM
1.63 nM | 7.6 nM | 2.23 nM |  | CN(CCCc1ccccc1)C1CCN(C(=O)Cn2cc(NC(=O)c3cnn4cccnc34)c(-c3cc(Cl)ccc3OC(F)F)n2)CC1 [Example 123, N-[3-[5-chloro-2-(difluoromethoxy)phenyl]-1-[2-[4-[methyl(3-phenylpropyl)amino]-1-piperidyl]-2-oxo-ethyl]pyrazol-4-yl]pyrazolo[1,5-a]pyrimidine-3-carboxamide] | 0.0487 µM
1.27 nM | 3.1 nM | 0.57 nM |  | O=C(Nc1cn(CC(=O)N2CCC(NC(c3ccccc3)C(F)(F)F)CC2)nc1-c1cc(Cl)ccc1OC(F)F)c1cnn2cccnc12 (stereo not shown) [Example 132, N-[3-[5-chloro-2-(difluoromethoxy)phenyl]-1-[2-oxo-2-[4-[(2,2,2-trifluoro-1-phenyl-ethyl)amino]-1-piperidyl]ethyl]pyrazol-4-yl]pyrazolo[1,5-a]pyrimidine-3-carboxamide] | 0.0973 µM
